Source: patent publication US20240299328A1, “COMPOSITIONS COMPRISING 15-HEPE AND METHODS OF TREATING AND/OR PREVENTING HEMATOLOGIC DISORDERS AND RELATED DISEASES” (Afimmune Limited, priority 2023, published 2024)
Like-named read-outs stand apart in the source and are kept apart here.

Columns and labels:
Assay type in all cases: in vivo
UUO mice = tested on: UUO mice
Method: UUO Surgery: On day 0 of the study, UUO surgery was performed on mice under pentobarbital sodium anesthesia. The mouse's hair was first shaved and then abdomen cut open to exteriorize the mouse's left ureter. The ureter was ligated 4-0 nylon sutures at two points. The mouse's peritoneum and skin were then closed with sutures, and the mouse transferred to a clean cage until recovered from the anesthesia. Sham operated mice had their left ureter exposed but not ligated. […]
(§1) Animals: Seven-week-old female C57BL/6 mice (i.e., animals) were obtained and were housed and fed with a normal diet under controlled conditions. The animals were maintained in a specific-pathogen free (SPF) facility under controlled conditions of temperature (e.g., 23±2° C.), humidity (e.g., 45±10%), lighting (e.g., 12-hour artificial light and dark cycles; light from 8:00 to 20:00) and air exchange. A high pressure was maintained in the experimental room to prevent contamination of the facility. The animals were housed in TPX cages with a maximum of 4 mice per cage. Sterilized Paper-Clean was used for bedding and replaced once a week. Sterilized solid normal diet was provided ad libitum, being placed in a metal lid on the top of the cage. Pure water was also provided ad libitum from a water bottle equipped with a rubber stopper and a sipper tube. Water bottles were replaced once a week, cleaned, and sterilized in an autoclave and reused. Mice were identified by ear punch and each cage was labeled with a specific identification code.
(§2) Animal Monitoring and Sacrifice: The viability, clinical signs and behavior for the mice were monitored daily. Individual body weight was measured daily before treatment during the treatment period. […] The animals were sacrificed by exsanguination through direct cardiac puncture under isoflurane anesthesia at Day 14.

BDL-operated mice [1] = tested on: BDL-operated mice
Method: BDL Surgery: On Day 0 of the study, BDL surgery was performed under pentobarbital anesthesia. The mouse's hair was first shaved, the abdominal cavity cut open, and the common bile duct was ligated twice with 7-0 surgical silk. The mouse's peritoneum and the skin were closed with sutures, and the mice were transferred to a clean cage (e.g., resting cage) until recovered from anesthesia. Sham operated mice had their common bile duct exposed but not ligated.
as §1, with “Pathogen-free 6 weeks of age male C57BL/6J” for “Seven-week-old female C57BL/6”, “mice” for “mice (i.e., animals)”, “obtained.” for “obtained and were housed and fed with a normal diet under controlled conditions.”
as §2, with “sacrificed at Day 14 after BDL surgery” for “sacrificed”, “anesthesia.” for “anesthesia at Day 14.”

BDL-operated mice [2] = assay: BDL study: serum biochemistry (ALT, total bilirubin)
Method: Sample Collection: For serum samples, non-fasting blood was collected in serum separate tubes without anticoagulant through direct cardiac puncture and centrifuged at 3,500×g for 4 minutes at 4° C. The superatant was collected and stored at −80° C. for biochemistry (30 μL) and shipping (all the remaining). For liver samples, left lateral lobe was collected and cut into 6 pieces. Two pieces of left lateral lobe were fixed in Bouin's solution and then embedded in paraffin. Samples were stored at room temperature for histological analysis. The other 2 pieces of left lateral lobe were embedded in O.C.T. compound and quick frozen in liquid nitrogen. Samples were stored at −80° C. The remaining pieces of left lateral lobe was snap frozen in liquid nitrogen and stored at −80° C. for gene expression analyses. Right medial lobe, left medial lobe, right lobe and caudate lobe were snap frozen in liquid nitrogen and stored at −80° C. for shipping.

[3] = 50 mg/kg PO QD Day 0-13, Day 14, mean ± SD
[4] = 500 mg/kg PO QD Day 0-13, Day 14, mean ± SD
[5] = 250 mg/kg PO QD Day 0-13, Day 14, mean ± SD
[6] = DS102 50, 250, 500 mg/kg groups vs Vehicle group

CC/C=C\C[C@H](O)/C=C/C=C\C/C=C\C/C=C\CCCC(=O)OCC [DS102, 15(S)-hydroxy-(5Z,8Z,11Z,13E,17Z)-eicosapentaenoic acid ethyl ester]
Body Weight (UUO mice; [3]): 18.8 ± 0.6 g
Left Kidney Weight (UUO mice; [3]): 469 ± 60 mg
Right Kidney Weight (UUO mice; [3]): 133 ± 10 mg
Body Weight (UUO mice; [4]): 18.7 ± 0.5 g
Left Kidney Weight (UUO mice; [4]): 487 ± 108 mg
Right Kidney Weight (UUO mice; [4]): 136 ± 6 mg
Body Weight (BDL-operated mice [1]; [3]): 17.4 ± 2.9 g
Liver Weight (BDL-operated mice [1]; [3]): 1392 ± 328 mg
Body Weight (BDL-operated mice [1]; [5]): 17.0 ± 2.4 g
Liver Weight (BDL-operated mice [1]; [5]): 1513 ± 182 mg
Body Weight (BDL-operated mice [1]; [4]): 16.4 ± 1.6 g
mean body weight at any day during the study period (BDL-operated mice [1]; [6]): no significant changes
mean body weight on the day of sacrifice (BDL-operated mice [1]; [6]): no significant differences
mice found dead before reaching Day 14 (BDL-operated mice [1]; in the DS102 low, middle and high groups (50, 250, 500 mg/kg), Vehicle three out of 15): seven out of 15
Serum ALT (BDL-operated mice [2]; [3]): 402 ± 112 U/L
Serum Total Bilirubin (BDL-operated mice [2]; [3]): 26.8 ± 6.9 mg/dL
Serum ALT (BDL-operated mice [2]; [5]): 351 ± 155 U/L
Serum Total Bilirubin (BDL-operated mice [2]; [5]): 23.5 ± 9.8 mg/dL
Serum ALT (BDL-operated mice [2]; [4]): 383 ± 147 U/L
Serum Total Bilirubin (BDL-operated mice [2]; [4]): 26.2 ± 6.1 mg/dL
serum ALT level (BDL-operated mice [2]; [6]): no significant differences
serum total bilirubin level (BDL-operated mice [2]; [6]): no significant differences
